Measurements from US20240024488A1, “COMPOUNDS AND USES THEREOF” (Foghorn Therapeutics Inc., priority 2020, published 2024).

What was measured:
[1] = molecular target: T1, HiBit-BRM fusion protein (Homo sapiens, UniProt P51531); assay: HiBiT-BRM cell-based degradation assay (Nano-Glo HiBiT Lytic Detection, 24 h); settings: HeLa cell line expressing HiBiT-BRM; for DC50: read-out: BRM HiBit Degradation IC50
T1 construct: expressed in transfected cells
Summary of the method: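 Luminescence from reconstituted NanoBiT luciferase in lysed HeLa HiBiT-BRM cells served as the measure of remaining BRM after 24 h treatment. Compounds were tested from 30 μM final downward in 3-fold steps. DMSO and 2 μM of a standard BRM/BRG1 degrader defined the scale limits.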

[2] = molecular target: T2, HiBit-BRG1 fusion protein (Homo sapiens, UniProt P51532); assay: HiBiT-BRG1 cell-based degradation assay (Nano-Glo HiBiT Lytic Detection, 24 h); settings: HeLa cell line expressing HiBit-BRG1 and LgBit; for Dmax: read-out: BRG1 HiBit Degradation Maximum (%); for DC50: read-out: BRMG1 HiBit Degradation IC50
T2 construct: expressed in transfected cells
Summary of the method: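 Luminescence from Nano-Glo HiBiT lytic detection, read after 24 h compound exposure, scored degradation in a stable HeLa HiBiT-BRG1/LgBit line seeded at 5000 cells/well. DMSO wells defined 0% and 2 μM known BRM/BRG1 degrader wells defined full degradation.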

T2 sequence (P51532 whole entry, the tested form may be a part): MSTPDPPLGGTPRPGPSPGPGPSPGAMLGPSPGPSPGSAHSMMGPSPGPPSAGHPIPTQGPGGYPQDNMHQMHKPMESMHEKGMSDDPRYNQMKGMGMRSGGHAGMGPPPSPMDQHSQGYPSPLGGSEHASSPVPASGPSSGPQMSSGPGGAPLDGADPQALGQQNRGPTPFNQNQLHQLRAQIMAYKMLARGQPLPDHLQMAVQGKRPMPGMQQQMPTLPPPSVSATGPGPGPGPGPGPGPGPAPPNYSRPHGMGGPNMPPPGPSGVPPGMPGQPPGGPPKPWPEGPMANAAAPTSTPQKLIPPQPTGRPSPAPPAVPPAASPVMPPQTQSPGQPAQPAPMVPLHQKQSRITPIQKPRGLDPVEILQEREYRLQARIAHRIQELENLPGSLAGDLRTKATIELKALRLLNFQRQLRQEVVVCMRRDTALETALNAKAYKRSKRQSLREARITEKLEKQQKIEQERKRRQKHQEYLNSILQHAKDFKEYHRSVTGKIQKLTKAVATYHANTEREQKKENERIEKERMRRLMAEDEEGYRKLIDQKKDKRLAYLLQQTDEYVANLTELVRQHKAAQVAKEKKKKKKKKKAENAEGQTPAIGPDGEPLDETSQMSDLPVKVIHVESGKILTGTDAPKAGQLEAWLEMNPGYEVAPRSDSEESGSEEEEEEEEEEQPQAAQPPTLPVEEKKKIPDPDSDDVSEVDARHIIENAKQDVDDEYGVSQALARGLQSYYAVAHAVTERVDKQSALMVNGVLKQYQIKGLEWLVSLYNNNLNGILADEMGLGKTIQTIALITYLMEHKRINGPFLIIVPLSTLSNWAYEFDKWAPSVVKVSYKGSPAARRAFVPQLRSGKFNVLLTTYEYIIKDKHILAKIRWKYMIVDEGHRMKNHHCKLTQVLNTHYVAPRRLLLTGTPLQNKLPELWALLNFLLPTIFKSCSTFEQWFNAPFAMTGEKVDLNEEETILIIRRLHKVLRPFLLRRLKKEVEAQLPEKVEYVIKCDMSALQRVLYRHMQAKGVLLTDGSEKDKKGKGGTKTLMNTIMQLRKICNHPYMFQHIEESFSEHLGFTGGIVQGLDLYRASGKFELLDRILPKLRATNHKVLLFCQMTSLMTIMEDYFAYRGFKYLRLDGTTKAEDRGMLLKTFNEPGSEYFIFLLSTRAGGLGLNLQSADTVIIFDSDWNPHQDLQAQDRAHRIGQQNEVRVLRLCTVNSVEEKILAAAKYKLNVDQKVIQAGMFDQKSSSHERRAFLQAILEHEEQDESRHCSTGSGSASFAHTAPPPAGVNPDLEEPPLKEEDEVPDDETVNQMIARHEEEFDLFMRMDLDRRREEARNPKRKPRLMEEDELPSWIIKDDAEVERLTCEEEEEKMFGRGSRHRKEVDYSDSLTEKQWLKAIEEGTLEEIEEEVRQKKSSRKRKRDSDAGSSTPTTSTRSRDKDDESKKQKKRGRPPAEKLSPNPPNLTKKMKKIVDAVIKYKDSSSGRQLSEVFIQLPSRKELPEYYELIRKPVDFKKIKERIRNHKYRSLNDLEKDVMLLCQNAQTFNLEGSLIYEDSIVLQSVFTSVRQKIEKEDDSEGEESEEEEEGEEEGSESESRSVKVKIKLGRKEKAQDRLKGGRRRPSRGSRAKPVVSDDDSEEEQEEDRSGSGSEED
T1 sequence (P51531 whole entry, the tested form may be a part): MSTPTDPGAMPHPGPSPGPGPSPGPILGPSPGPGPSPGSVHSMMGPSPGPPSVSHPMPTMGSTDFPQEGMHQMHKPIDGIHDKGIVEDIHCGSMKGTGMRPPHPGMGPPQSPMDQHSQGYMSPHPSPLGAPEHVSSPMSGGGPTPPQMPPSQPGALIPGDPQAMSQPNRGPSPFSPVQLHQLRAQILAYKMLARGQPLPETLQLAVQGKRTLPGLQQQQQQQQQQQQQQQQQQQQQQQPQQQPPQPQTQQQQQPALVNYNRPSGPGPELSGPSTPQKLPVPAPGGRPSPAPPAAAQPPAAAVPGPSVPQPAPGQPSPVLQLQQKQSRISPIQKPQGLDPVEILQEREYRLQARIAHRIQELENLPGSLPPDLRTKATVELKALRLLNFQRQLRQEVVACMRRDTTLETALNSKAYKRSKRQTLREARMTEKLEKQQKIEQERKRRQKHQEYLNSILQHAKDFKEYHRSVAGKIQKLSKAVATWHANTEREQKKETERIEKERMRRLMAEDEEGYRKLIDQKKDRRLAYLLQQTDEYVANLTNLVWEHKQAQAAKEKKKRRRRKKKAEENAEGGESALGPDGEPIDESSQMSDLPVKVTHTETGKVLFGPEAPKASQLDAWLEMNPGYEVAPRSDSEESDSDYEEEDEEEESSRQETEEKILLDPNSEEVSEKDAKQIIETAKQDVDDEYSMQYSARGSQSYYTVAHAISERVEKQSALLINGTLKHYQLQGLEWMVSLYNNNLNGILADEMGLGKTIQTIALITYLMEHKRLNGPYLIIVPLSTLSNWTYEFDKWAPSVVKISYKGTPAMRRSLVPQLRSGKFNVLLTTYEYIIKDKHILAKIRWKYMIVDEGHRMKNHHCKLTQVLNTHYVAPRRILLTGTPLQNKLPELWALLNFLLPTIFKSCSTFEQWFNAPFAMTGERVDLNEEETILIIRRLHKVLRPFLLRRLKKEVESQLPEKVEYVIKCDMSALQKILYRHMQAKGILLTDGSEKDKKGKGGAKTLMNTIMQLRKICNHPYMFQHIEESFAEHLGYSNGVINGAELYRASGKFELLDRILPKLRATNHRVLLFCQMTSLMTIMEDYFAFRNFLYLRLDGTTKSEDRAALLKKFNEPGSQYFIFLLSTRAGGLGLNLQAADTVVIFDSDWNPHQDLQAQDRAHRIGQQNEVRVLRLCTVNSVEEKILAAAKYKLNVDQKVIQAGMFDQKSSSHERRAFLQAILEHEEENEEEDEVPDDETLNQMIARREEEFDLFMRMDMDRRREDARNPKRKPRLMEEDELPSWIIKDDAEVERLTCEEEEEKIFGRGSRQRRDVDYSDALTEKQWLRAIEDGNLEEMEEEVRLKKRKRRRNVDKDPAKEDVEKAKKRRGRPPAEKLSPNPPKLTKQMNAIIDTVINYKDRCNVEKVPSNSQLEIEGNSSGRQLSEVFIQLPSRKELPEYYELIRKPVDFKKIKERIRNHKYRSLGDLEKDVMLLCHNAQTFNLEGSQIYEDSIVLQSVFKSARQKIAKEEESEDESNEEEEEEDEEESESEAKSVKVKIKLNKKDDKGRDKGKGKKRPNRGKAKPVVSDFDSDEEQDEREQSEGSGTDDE

| SMILES | DC50 [1] [nM] | Dmax [2] [%] | DC50 [2] [nM] | BRM HiBit Degradation Maximum (%) [1] |
| --- | --- | --- | --- | --- |
| Cc1ncsc1-c1ccc(CNC(=O)[C@@H]2C[C@@H](O)CN2C(=O)[C@@H](NC(=O)CCCCN2CC(c3cc4cc(-c5ccccc5O)nnc4[nH]3)C2)C(C)(C)C)cc1 (racemic) [Compound 297, (2S,4R)-4-hydroxy-1-((S)-2-(5-(3-(3-(2-hydroxyphenyl)-7H-pyrrolo[2,3-c]pyridazin-6-yl)azetidin-1-yl)pentanamido)-3,3-dimethylbutanoyl)-N-(4-(4-methylthiazol-5-yl)benzyl)pyrrolidine-2-carboxamide] |  | < 50 |  | C (“C” indicates maximum degradation < 50%) |
| Cc1ncsc1-c1ccc(CNC(=O)[C@@H]2C[C@@H](O)CN2C(=O)[C@@H](NC(=O)CCC(=O)NC23CC(c4cc5cc(-c6ccccc6O)nnc5[nH]4)(C2)C3)C(C)(C)C)cc1 (racemic) [Compound 298, N1-((S)-1-((2S,4R)-4-hydroxy-2-((4-(4-methylthiazol-5-yl)benzyl)carbamoyl)pyrrolidin-1-yl)-3,3-dimethyl-1-oxobutan-2-yl)-N4-(3-(3-(2-hydroxyphenyl)-7H-pyrrolo[2,3-c]pyridazin-6-yl)bicyclo[1.1.1]pentan-1-yl)succinamide] |  | < 50 |  | C (“C” indicates maximum degradation < 50%) |
| Cc1ncsc1-c1ccc(CNC(=O)[C@@H]2C[C@@H](O)CN2C(=O)[C@@H](NC(=O)CCCCC(=O)NC23CC(c4cc5cc(-c6ccccc6O)nnc5[nH]4)(C2)C3)C(C)(C)C)cc1 (racemic) [Compound 299, N1-((S)-1-((2S,4R)-4-hydroxy-2-((4-(4-methylthiazol-5-yl)benzyl)carbamoyl)pyrrolidin-1-yl)-3,3-dimethyl-1-oxobutan-2-yl)-N6-(3-(3-(2-hydroxyphenyl)-7H-pyrrolo[2,3-c]pyridazin-6-yl)bicyclo[1.1.1]pentan-1-yl)adipamide] | > 1000 | < 50 |  | B (“B” indicates maximum degradation ≥ 50%) |
| Cc1ncsc1-c1ccc(CNC(=O)[C@@H]2C[C@@H](O)CN2C(=O)[C@@H](NC(=O)CCCC(=O)NC23CC(c4cc5cc(-c6ccccc6O)nnc5[nH]4)(C2)C3)C(C)(C)C)cc1 (racemic) [Compound 301, N1-((S)-1-((2S,4R)-4-hydroxy-2-((4-(4-methylthiazol-5-yl)benzyl)carbamoyl)pyrrolidin-1-yl)-3,3-dimethyl-1-oxobutan-2-yl)-N5-(3-(3-(2-hydroxyphenyl)-7H-pyrrolo[2,3-c]pyridazin-6-yl)bicyclo[1.1.1]pentan-1-yl)glutaramide] | > 1000 | < 50 |  | B (“B” indicates maximum degradation ≥ 50%) |
| Cc1ncsc1-c1ccc([C@H](C)NC(=O)[C@@H]2C[C@@H](O)CN2C(=O)[C@@H](c2cc(OCCN3CCc4[nH]c5nnc(-c6ccccc6O)cc5c4C3)no2)C(C)C)cc1 (racemic) [Compound 303, (2S,4R)-4-hydroxy-1-((R)-2-(3-(2-(3-(2-hydroxyphenyl)-5,7,8,9-tetrahydro-6H-pyrido[3′,4′:4,5]pyrrolo[2,3-c]pyridazin-6-yl)ethoxy)isoxazol-5-yl)-3-methylbutanoyl)-N-((S)-1-(4-(4-methylthiazol-5-yl)phenyl)ethyl)pyrrolidine-2-carboxamide] |  | < 50 |  | C (“C” indicates maximum degradation < 50%) |
| Cc1ncsc1-c1ccc([C@H](C)NC(=O)[C@@H]2C[C@@H](O)CN2C(=O)[C@@H](c2cc(OCC(=O)N3CC(c4cc5cc(-c6ccccc6O)nnc5[nH]4)C3)no2)C(C)C)cc1 (racemic) [Compound 305, (2S,4R)-4-hydroxy-1-((R)-2-(3-(2-(3-(3-(2-hydroxyphenyl)-7H-pyrrolo[2,3-c]pyridazin-6-yl)azetidin-1-yl)-2-oxoethoxy)isoxazol-5-yl)-3-methylbutanoyl)-N-((S)-1-(4-(4-methylthiazol-5-yl)phenyl)ethyl)pyrrolidine-2-carboxamide] | > 1000 | < 50 |  | A (“A” indicates maximum degradation ≥ 75%) |
| Cc1ncsc1-c1ccc(CNC(=O)[C@@H]2C[C@@H](O)CN2C(=O)[C@@H](NC(=O)C(=O)N2CC(c3cc4cc(-c5ccccc5O)nnc4[nH]3)C2)C(C)(C)C)cc1 (racemic) [Compound 306, (2S,4R)-4-hydroxy-1-((S)-2-(2-(3-(3-(2-hydroxyphenyl)-7H-pyrrolo[2,3-c]pyridazin-6-yl)azetidin-1-yl)-2-oxoacetamido)-3,3-dimethylbutanoyl)-N-(4-(4-methylthiazol-5-yl)benzyl)pyrrolidine-2-carboxamide] |  | < 50 |  | C (“C” indicates maximum degradation < 50%) |
| Cc1ncsc1-c1ccc([C@H](C)NC(=O)[C@@H]2C[C@@H](O)CN2C(=O)C(c2cc(OCCNC3(C(=O)O)CCc4[nH]c5nnc(-c6ccccc6O)cc5c4C3)no2)C(C)C)cc1 (relative stereo) [Compound 90, (6R*)-6-({2-[(5-{1-[(2S,4R)-4-hydroxy-2-{[(1S)-1-[4-(4-methyl-1,3-thiazol-5-yl)phenyl]ethyl]carbamoyl}pyrrolidin-1-yl]-3-methyl-1-oxobutan-2-yl}-1,2-oxazol-3-yl)oxy]ethyl}amino)-3-(2-hydroxyphenyl)-5H,7H,8H,9H-pyridazino[3,4-b]indole-6-carboxylic acid] | > 1000 | < 50 |  | A (“A” indicates maximum degradation ≥ 75%) |

Further lines, with some results ahead:

| DC50 [1] [nM] | Dmax [2] [%] | DC50 [2] [nM] | SMILES | BRM HiBit Degradation Maximum (%) [1] |
| --- | --- | --- | --- | --- |
| > 10 | > 75 | > 100 | Cc1ncsc1-c1ccc([C@H](C)NC(=O)[C@@H]2C[C@@H](O)CN2C(=O)[C@@H](c2cc(OCCNCc3ccc(Cc4cc5cc(-c6ccccc6O)nnc5[nH]4)cc3)no2)C(C)C)cc1 (racemic) [Compound 295] | A (“A” indicates maximum degradation ≥ 75%) |
| > 1000 | > 50 | > 1000 | Cc1ncsc1-c1ccc(CNC(=O)[C@@H]2C[C@@H](O)CN2C(=O)[C@@H](NC(=O)CCNC23CC(c4cc5cc(-c6ccccc6O)nnc5[nH]4)(C2)C3)C(C)(C)C)cc1 (racemic) [Compound 296] | A (“A” indicates maximum degradation ≥ 75%) |
| > 100 | > 50 |  | Cc1ncsc1-c1ccc([C@H](C)NC(=O)[C@@H]2C[C@@H](O)CN2C(=O)[C@@H](c2cc(OCCNCCN3CC(c4cc5cc(-c6ccccc6O)nnc5[nH]4)C3)no2)C(C)C)cc1 (racemic) [Compound 300] | A (“A” indicates maximum degradation ≥ 75%) |
| > 10 | > 75 | > 10 | Cc1ncsc1-c1ccc([C@H](C)NC(=O)[C@@H]2C[C@@H](O)CN2C(=O)[C@@H](c2cc(OCCN(C)C34CC(c5cc6cc(-c7ccccc7O)nnc6[nH]5)(C3)C4)no2)C(C)C)cc1 (racemic) [Compound 302, (2S,4R)-4-hydroxy-1-((R)-2-(3-(2-((3-(3-(2-hydroxyphenyl)-7H-pyrrolo[2,3-c]pyridazin-6-yl)bicyclo[1.1.1]pentan-1-yl)(methyl)amino)ethoxy)isoxazol-5-yl)-3-methylbutanoyl)-N-((S)-1-(4-(4-methylthiazol-5-yl)phenyl)ethyl)pyrrolidine-2-carboxamide] | A (“A” indicates maximum degradation ≥ 75%) |
| > 10 | > 75 | > 100 | Cc1ncsc1-c1ccc([C@H](C)NC(=O)[C@@H]2C[C@@H](O)CN2C(=O)[C@@H](c2cc(OCCN3CC4(CC(c5c[nH]c6nnc(-c7ccccc7O)cc56)C4)C3)no2)C(C)C)cc1 (racemic) [Compound 304, (2S,4R)-4-hydroxy-1-((R)-2-(3-(2-(6-(3-(2-hydroxyphenyl)-7H-pyrrolo[2,3-c]pyridazin-5-yl)-2-azaspiro[3.3]heptan-2-yl)ethoxy)isoxazol-5-yl)-3-methylbutanoyl)-N-((S)-1-(4-(4-methylthiazol-5-yl)phenyl)ethyl)pyrrolidine-2-carboxamide] | A (“A” indicates maximum degradation ≥ 75%) |
| < 10 | > 75 | > 10 | Cc1ncsc1-c1ccc([C@H](C)NC(=O)[C@@H]2C[C@@H](O)CN2C(=O)[C@@H](c2cc(OCCN3CC(c4[nH]c5nnc(-c6ccccc6O)cc5c4C)C3)no2)C(C)C)cc1 (racemic) [Compound 307, (2S,4R)-4-hydroxy-1-((R)-2-(3-(2-(3-(3-(2-hydroxyphenyl)-5-methyl-7H-pyrrolo[2,3-c]pyridazin-6-yl)azetidin-1-yl)ethoxy)isoxazol-5-yl)-3-methylbutanoyl)-N-((S)-1-(4-(4-methylthiazol-5-yl)phenyl)ethyl)pyrrolidine-2-carboxamide] | A (“A” indicates maximum degradation ≥ 75%) |
| < 10 | > 75 | > 10 | Cc1ncsc1-c1ccc([C@H](C)NC(=O)[C@@H]2C[C@@H](O)CN2C(=O)[C@@H](c2cc(OCCN3C[C@@H]4[C@H](C3)[C@H]4c3cc4cc(-c5ccccc5O)nnc4[nH]3)no2)C(C)C)cc1 (racemic) [Compound 308, (2S,4R)-4-hydroxy-1-((R)-2-(3-(2-((1R,5S,6R)-6-(3-(2-hydroxyphenyl)-7H-pyrrolo[2,3-c]pyridazin-6-yl)-3-azabicyclo[3.1.0]hexan-3-yl)ethoxy)isoxazol-5-yl)-3-methylbutanoyl)-N-((S)-1-(4-(4-methylthiazol-5-yl)phenyl)ethyl)pyrrolidine-2-carboxamide] | A (“A” indicates maximum degradation ≥ 75%) |
